Where two headings read alike, the source gives them in different places. A value given as a limit tells only on which side of the number the result lay.

Holding throughout (format): cell-based
Data set [1] relates to empty vector control cells. As to the method: (§1) T7-PMS134 cells and empty vector control cells were grown with IPTG for 48 hours and then diluted 1:50 in LB plus IPTG and increasing amounts of ethyl methane sulfonate (EMS) from 0, 1, 10, 50, 100, and 200 μM. 10 μL aliquots of culture (diluted in 300 μl LB) were plated out on LB agar plus ampicillin plates and grown overnight at 37 C. The next day plates were analyzed for cell viability as determined by colony formation. […] The 200 μM treatment was toxic for both lines.

In the next data set the test system is T7-PMS134 BL21 cells. Briefly: EMS toxicity, cell viability by colony formation. How it is done:
as §1

Data set [2] deals with kanamycin resistant pT7-PMS134 and pT7-PMSR3 colonies. In words: Genetic stability of kanamycin resistance (revertants). As to the method:
As described in EXAMPLE 2 and 3, manipulation of the MMR pathway in microbes results in alterations within the host genome and the ability to select for a novel output traits. It is important that the mutations introduced as a result of defective MMR is genetically stable and passed on to daughter cells once a desired output pathway is established. To determine the genetic stability of mutations introduced into the microbial genome the following experiment was performed. Five independent colonies from pT7-PMS134 and pT7-PMSR3 that are kanamycin resistance were grown overnight from an isolated colony in 5 ml of LB. Next, 1 μL of the overnight culture from these cultures were inoculated into another 5 mL of LB and grown overnight to saturation. Under these growth conditions the microbial cells have divided over 20 generations. Therefore, if the new output trait generated by alteration of MMR is unstable, the cells should “revert” back from kanamycin resistance to kanamycin sensitivity. Cells were plated onto LB plates and incubated overnight at 37° C. Next, the colonies (about 1,000/plate) were replica plated to LB, LB^amp100, and LB^kan50 plates and incubated at 37° C. overnight. […] Extended culturing of cells and replica plating found no reversions of KAN resistance in cultures grown in the absence of IPTG, which produce no PMS134 as determined by western blot (data not shown).

Another data set relates to BL21 cells. In words: Kanamycin-resistance (hypermutability) assay in BL21. The note with it: for KAN resistant cells: after 24 hr IPTG-induction; for KAN resistant clones: non-IPTG-induced conditions. As to the method:
However, upon addition of the inducer IPTG, the cells express high-levels of T7 polymerase due to the IPTG-inducible element that drives expression of the polymerase that is resident within the genome of the BL21 cells (30). The BL21 cells are chloramphenicol resistant due to the plasmid that expresses lysozyme within the cell. To introduce the pT7-hPMS 134 or the pT7-hPMSR3 genes into BL21 cells, the cells were made competent by incubating the cells in ice cold 50 mM CaCl2 for 20 minutes, followed by concentrating the cells and adding super-coiled plasmid DNA as describe (Maniatis, T. et. al. Cold Spring Harbor Laboratory Press, Third Edition, 2001). Ampicillin resistant BL21 were selected on LB-agar plates [[…], 1.5% bactoagar, pH 7.0 (Difco)] plates containing 25 μg/ml chloramphenicol and 100 μg/ml ampicillin. The next day, bacterial colonies were picked and analyzed for vectors containing an intact pTACPMS134 or pTAC empty vector by restriction endonuclease digestion and sequence analysis.
Kanamycin-resistant assays using BL21 cells expressing the V5-tagged or untagged PMS134 or PMSR3 polypeptides were carried out as described above. BL21 bacterial cells that harbor the empty vector, pT7-PMS134 or pT7-PMSR3 were grown overnight in LB supplemented with 100 μg/ml ampicillin. The overnight cultures were diluted 1:100 into fresh ampicillin containing medium and grown for 2.5 hours at 37° C. with continuous shaking. When the cells reached an optical density (OD) of 0.6, measured at 600 nm, IPTG was added to each culture to a final concentration of 0.5 mM. Cells were incubated for 24, and 48 hours; at those time points cells were removed for SDS-PAGE analysis and plating (see above). BL21/pT7 (empty vector), BL21/pT7-PMS134, and BL21/pT7-R3 cells were plated onto LB plates, LB plates that contained 100 ug/ml ampicillin, and plates that contain 50 ug/ml Kanamycin. The equivalent of 1×10^7 cells/plate were spread onto the plates. BL21 cells that harbor the empty vector are capable of growth on LB plates as well as LB plates that contain 100 ug/ml ampicillin; that is as expected since the pT7 expression vector renders the cells ampicillin resistant. The vector only control is not capable of growth on Kanamycin.

In the case of `CCOS(C)(=O)=O` [EMS, ethyl methane sulfonate], the colony number (in data set [1] (1 uM EMS); in data set [1] (10 uM EMS); in the data set with T7-PMS134 BL21 cells (1 uM EMS); with T7-PMS134 BL21 cells (10 uM EMS)) was above 1000 colonies throughout. Further, the “number of control cells” value in data set [1] (50 μM EMS) is reported as 30; in data set [1] (100 μM EMS), 0. For the same molecule, the “toxicity (in words)” value (in data set [1] (200 μM EMS); with T7-PMS134 BL21 cells (200 μM EMS)) was “toxic” throughout. Also, the “colony number (in words)” value with T7-PMS134 BL21 cells (50 μM EMS) is reported as “No difference”. For the same molecule, in the data set with T7-PMS134 BL21 cells (100 μM EMS), the “reduction in colony number” value was found to be 3 fold.

B1: PMS134: dominant negative human PMS2 truncated at codon 134; N-terminal 133 amino acids (SEQ ID NO: 21) (protein, listed as Homo sapiens)
chain: MKQLPAATVRLLSSSQIITSVVSVVKELIENSLDAGATSVDVKLENYGFDKIEVRDNGEGIKAVDAPVMAMKYYTSKINSHEDLENLTTYGFRGEALGSICCIAEVLITTRTAADNFSTQYVLDGSGHILSQK
B1: the “revertants of KAN resistance” value in data set [2] (continually grown in IPTG, out of 1200) is 5. Further, the “loss of KAN resistant clones” value in data set [2] (grown in the absence of IPTG) was “No loss”. For the same molecule, in the data set on BL21 cells, the KAN resistant cells result was “significant number” and the KAN resistant clones entry is recorded as “failed to produce any KAN resistant clones”.

B2: PMSR3: human PMS2 related gene product (SEQ ID NO: 24) (protein, listed as Homo sapiens)
chain: MCPWRPRLGRRCMVSPREADLGPQKDTRLDLPRSPARAPREQNSLGEVDRRGPREQTRAPATAAPPRPLGSRGAEAAEPQEGLSATVSACFQEQQEMNTLQGPVSFKDVAVDFTQEEWRQLDPDEKIAYGDVMLENYSHLVSVGYDYHQAKHHHGVEVKEVEQGEEPWIMEGEFPCQHSPEPAKAIKPIDRKSVHQICSGPVVLSLSTAVKELVENSLDAGATNIDLKLKDYGVDLIEVSDNGCGVEEENFEGLISFSSETSHM
B2: in the data set with BL21 cells, the KAN resistant cells result is “significant number” and the KAN resistant clones result is reported as “failed to produce any KAN resistant clones”.

The values are drawn from patent US7695969B2, “Methods for generating hypermutable microbes” (priority 2000, dated 2010).
